Experiments:
Erv1 = target: T1, Erv1 (Saccharomyces cerevisiae, UniProt P27882); assay: In vitro Erv1 oxidase activity, Amplex Red-HRP assay; assay type: biochemical, yeast; settings: 100 μM
T1 construct: made in house
T1 sequence (P27882 1-189): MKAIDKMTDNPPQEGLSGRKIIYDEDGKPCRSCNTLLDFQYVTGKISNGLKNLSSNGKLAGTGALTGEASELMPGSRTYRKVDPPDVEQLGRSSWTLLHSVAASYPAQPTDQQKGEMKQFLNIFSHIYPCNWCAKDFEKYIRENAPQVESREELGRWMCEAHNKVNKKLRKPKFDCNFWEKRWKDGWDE
Protocol: The primary chemical screen used fresh recombinant Erv1 (in buffer 30 mM Hepes, pH 7.4, 100 mM NaCl, 1 mM EDTA) at a concentration of 10 μM, which was expressed as described previously. […] A Biomek FX (Beckman Coulter) was used to pin transfer 0.5 μl of compound from 1 mM stock or DMSO to respective wells. Approximate screening
concentration was 12.5 μM. After completed compound transfer, all plates were incubated at 25° C. in a humidified incubator for 1 hour. A Titertek multidrop was used to dispense 15 μl of Amplex Red-horseradish peroxidase (HRP) (Sigma) mix into all wells of the 384-well plate. The final concentration of Amplex Red and HRP were 46 μM and 0.092 U/ml, respectively. The Amplex Red-HRP solution was shielded from light during the entire experiment. The plates were incubated for an additional 10 min and then 15 μl of the substrate DTT (20 μM) was added to initiate the reduction of 02 to H2O2. […] Plates were then read at an endpoint using an excitation wavelength of 545 nm and an emission wavelength of 590 nm. […]
H2O2 production was measured using a standard fluorometric assay with Amplex Red and horseradish peroxidase (HRP). […] Fluorescence intensity was measured and reactions that were inhibited by more than 50% were picked as potential Erv1 inhibitors and selected for secondary analysis.

[1] = test system: tim10-1 tim9S mitochondria; assay: In vitro import of radiolabeled precursors into tim10-1 tim9S mitochondria; assay type: biochemical, yeast; settings: SAR study
Protocol: Prior to import into purified mitochondria, ^35S-methionine and cysteine labeled proteins were generated with TNT Quick Coupled Transcription/Translation kits (Promega) and plasmids carrying the gene of interest. Transcription of genes was driven by either a T7 or SP6 promoter. Import reactions were conducted according to established methods. After frozen mitochondria aliquots were thawed and added to the import buffer at a final concentration of 100 μg/mL, drug or DMSO vehicle was added as indicated. A final vehicle concentration of 1% was used in all experiments. Following 15 minute incubation at 25° C., import reactions were initiated by the addition of […] of translation mix. Aliquots were removed at intervals during the reaction timecourse and import was terminated with either cold buffer, 25 μg/mL trypsin, or a combination of both. If trypsin was added to digest unimported precursor protein, soybean trypsin inhibitor (STI) was subsequently added in excess after 15 minute incubation on ice. After a final recovery of by centrifugation (8,000×g, 5 minutes), mitochondria were disrupted in Laemmli sample buffer. Imports of membrane proteins (AAC, PiC, Tom40, Tim22, and Tim23) included a carbonate extraction step to remove proteins that had not inserted into the membrane (Koehler C M, et al. (1998), Science 279:369-373). Samples from import reaction time points were resolved by SDS polyacrylamide gel electrophoresis (SDSPAGE) and gels were dried prior to exposing to film.

HeLa cells [2] = assay: Mitochondrial morphology in HeLa cells; assay type: cell-based; settings: 50 μM 12-16 h, up to 100 μM, 20 μM CCCP control
Protocol: (A) HeLa cells were transiently transfected with Su9-EGFP. Following transfection, cells were treated for 12 hr with 50 μM MitoBloCK-6 or control 1% DMSO. As a positive control, cells were incubated with 20 μM CCCP to dissipate the membrane potential. Mitochondria were also stained with 10 μM MitoTracker Red. Mitochondrial morphology was assessed by fluorescence microscopy and the Mitotracker Red and GFP channels were superimposed (Merge). (B) The effect of MitoBloCK-6 on the viability of HeLa cells was assessed with a MTT-based toxicology assay. Cultured cells were treated for 12-16 hr with DMSO or 50 μM and 100 μM MitoBloCK-6. Bars display mean cell viability where 100% was defined as signal from untreated samples. Error bars display standard error of the mean (n=5). (C) The release of cyt c was investigated. Cells were treated with 1% DMSO or 50 μM MitoBloCK-6 for 12-16 hr and fractionated into mitochondrial (M) and cytosolic (C) fractions. Release of mitochondrial proteins was assessed by immunoblot analysis with antibodies against cyt c, Complex V (ATP synthase subunit alpha), pyruvate dehydrogenase (PDH), and cytosolic GAPDH. Treatment with 1 μM staurosporine for 4 hr induced apoptosis and was included as a positive control.
For microscopy experiments, HeLa or HEK293 cells were transiently transfected with Su9-EGFP (Lipofectamine, Invitrogen) at 80% confluency. […]

[3] = test system: tim10-1 tim9S mitochondria; assay: Respiration (oxygen electrode) of tim10-1 tim9S mitochondria; assay type: biochemical, yeast; settings: NADH; 25 μM MitoBloCK-1; CCCP as control
Protocol: Oxygen consumption of […] mitochondria was measured using methods previously described (8). Briefly, purified […] mitochondria aliquots (25 mg/mL) were thawed on ice and tested within 2 hours. A Clark-type oxygen electrode in a stirred, thermostatically controlled 1.5-ml chamber at 25° C. (Oxytherm; Hansatech) facilitated measurement. […] Consumption rate was monitored for approximately 2 min.

[4] = test system: tim10-1 tim9S mitochondria; assay: Membrane potential with rhodamine 123; assay type: biochemical, yeast; settings: 25 μM MitoBloCK-1; CCCP as control
Protocol: Membrane potential measurement assays were conducted with a SPEX spectrofluorometer system (HORIBA Jobin Yvon) with a magnetically stirred cuvette held at 25° C. The quenching of rhodamine 123 fluorescence (Em, =530 nm and Ex=485 nm) was used as previously described (9) to detect changes in mitochondrial membrane potential. Purified tim10-1 tim9S mitochondrial aliquots were thawed and resuspended in respiration buffer (0.65 M mannitol, 0.3 mM EGTA, 3 mm tris-phosphate, 10 mM tris-maleate, pH 6.75). Trials were started by adding 100 nM of rhodamine 123 to respiration buffer. After a period of signal stabilization, mitochondria were added to a concentration of 100 μg/mL. Either drug or DMSO was then added to a final vehicle concentration of 1% following the establishment of baseline quenched fluorescence. Finally, mitochondria were uncoupled with 3 μM CCCP.

WT mitochondria = assay: Respiration of WT mitochondria with NADH (oxygen electrode); assay type: biochemical, yeast; settings: 25 μM MitoBloCK-6; CCCP control
Protocol: Oxygen consumption of WT mitochondria was measured using methods previously described (Claypool et al., 2008a). Briefly, purified WT mitochondria (25 mg/ml) were thawed on ice and tested within 2 hours. Oxygen consumption assays were performed with a Clark-type oxygen electrode in a stirred thermostatically controlled 1.5-ml chamber at 25° C. (Oxytherm, Hansatech). […] Consumption rate was monitored for approximately 2 min. […] Consumption rate was monitored for approximately 3 mins. MitoBloCK-6, SAR compounds, or DMSO was then added and respiration measured for another 3 mins. Uncoupled respiration was achieved as described above.

succinate dehydrogenase = target: T2, succinate dehydrogenase (Saccharomyces cerevisiae, UniProt Q00711); assay: Succinate dehydrogenase activity in WT mitochondria (oxygen electrode); assay type: biochemical, yeast; settings: 25 or 50 μM MitoBloCK-6; 20 mM malonate control
T2 construct: endogenous in cells; host or cells: mitochondria isolated from WT yeast
Protocol: (A) 160 μM insulin was reacted with 3 units of PDI in the presence of buffer, 1 mM bacitracin, or MitoBloCK-6 (MB-6). Reduction of insulin chains was initiated by the addition of DTT. The samples were incubated for 30 min at room temperature and then the turbidity was measured at a wavelength of 630 nm using a Bio-Tek plate-reader. (B) Succinate dehydrogenase activity was measured in WT mitochondria using a Clark-type oxygen electrode. Respiration was initiated with 10 mM succinate and, when steady-state respiration was established, 25 or 50 μM MitoBloCK-6, 50 μM ES-1, 50 μM ES-2, or 1% DMSO was added. Controls included 20 mM malonate that inhibits succinate dehydrogenase activity and CCCP that uncouples electron transport. The rate is reported as nmol O2 consumed/sec.
Oxygen consumption of WT mitochondria was measured using methods previously described (Claypool et al., 2008a). Briefly, purified WT mitochondria (25 mg/ml) were thawed on ice and tested within 2 hours. […] Consumption rate was monitored for approximately 2 min. MitoBloCK-6 or DMSO was then added to a final vehicle concentration of 1% and respiration was measured for another approximately 1.5 min. […] Consumption rate was monitored for approximately 3 mins. MitoBloCK-6, SAR compounds, or DMSO was then added and respiration measured for another 3 mins. […]

HeLa cells [5] = assay: Cyt c release assay by cell fractionation in HeLa cells; assay type: cell-based; settings: 50 μM MitoBloCK-6 12-16 h, 1 μM staurosporine 4 h
Protocol: For cyt c release assays, a cell fractionation kit (MitoSciences) was used. Briefly, HeLa or HEK293 cells were grown in 10 cm^2 dishes to 80% confluency and then cells were treated with DMSO or MitoBloCK-6 in complete medium for 12-16 h. […] Cells were fractionated to obtain cytosolic and mitochondrial fractions; 100 μg of each fraction was analyzed by SDS-PAGE. Blots were probed with ApoTrack cyt c apoptosis antibody cocktail (MitoSciences).

zebrafish embryos = assay: Zebrafish embryo development; assay type: in vivo
Protocol: Zebrafish used for o-dianisidine staining of red blood cells in DMSO and MitoBloCK-6 treated fish were albino lines generated from crosses of TL and TU fish. Line AB were injected with the ALR morpholino. Lines were maintained in a 14-hr light/10-hr dark cycle and mated for one hour to obtain synchronized embryonic development. […] Following treatment, embryos were imaged using a Leica MZ16F fluorescent stereoscope (TexasRed filter set) at 5× magnification. […] Embryos were allowed to mature to 2 dpf and then imaged like the MitoBloCK-6 treated embryos; embryos were imaged at day 2 because of concerns with morpholino dilution. Images were resized to 300 dpi without resampling using Adobe Photoshop software.

T2 sequence (Q00711 29-640): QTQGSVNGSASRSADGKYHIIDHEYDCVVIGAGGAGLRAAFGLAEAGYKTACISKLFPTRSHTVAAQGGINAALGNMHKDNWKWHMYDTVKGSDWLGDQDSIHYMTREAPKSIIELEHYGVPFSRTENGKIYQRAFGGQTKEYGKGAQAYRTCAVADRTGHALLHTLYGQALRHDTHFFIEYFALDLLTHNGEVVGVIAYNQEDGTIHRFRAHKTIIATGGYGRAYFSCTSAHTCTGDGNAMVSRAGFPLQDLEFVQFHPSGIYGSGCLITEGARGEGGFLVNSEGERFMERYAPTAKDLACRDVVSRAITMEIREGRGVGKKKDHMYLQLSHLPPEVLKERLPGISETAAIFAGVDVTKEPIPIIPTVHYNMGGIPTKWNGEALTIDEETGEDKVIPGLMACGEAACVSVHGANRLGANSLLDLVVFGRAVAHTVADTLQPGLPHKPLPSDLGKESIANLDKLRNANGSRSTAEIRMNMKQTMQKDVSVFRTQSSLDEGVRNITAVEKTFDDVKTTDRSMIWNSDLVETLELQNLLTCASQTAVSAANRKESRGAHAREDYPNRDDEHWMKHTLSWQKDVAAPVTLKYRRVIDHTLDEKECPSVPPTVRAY
T2 sequence (P21801 21-266 partner): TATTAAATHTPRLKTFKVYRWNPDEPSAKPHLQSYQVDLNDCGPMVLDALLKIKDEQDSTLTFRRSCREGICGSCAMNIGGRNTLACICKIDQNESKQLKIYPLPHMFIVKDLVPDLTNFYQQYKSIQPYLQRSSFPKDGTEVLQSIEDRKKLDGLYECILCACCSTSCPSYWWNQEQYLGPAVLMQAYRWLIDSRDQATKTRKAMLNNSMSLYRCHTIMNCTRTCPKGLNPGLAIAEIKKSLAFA
T2 sequence (P33421 51-198 partner): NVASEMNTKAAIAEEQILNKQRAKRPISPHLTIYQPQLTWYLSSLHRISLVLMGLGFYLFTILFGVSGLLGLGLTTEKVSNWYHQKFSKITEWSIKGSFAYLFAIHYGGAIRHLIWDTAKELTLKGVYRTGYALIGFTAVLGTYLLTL
T2 sequence (P37298 32-181 partner): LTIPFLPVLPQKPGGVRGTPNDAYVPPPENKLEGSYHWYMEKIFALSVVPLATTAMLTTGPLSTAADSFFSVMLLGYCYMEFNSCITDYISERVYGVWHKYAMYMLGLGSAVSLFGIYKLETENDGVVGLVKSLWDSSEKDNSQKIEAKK

O=Cc1cc(Cl)cc(Cl)c1O [3,5-dichlorosalicylaldehyde, reference compound]
Erv1 activity (Erv1): did not inhibit Erv1 activity

Cc1ccc2c(c1)C1CCC/C(=N\NC(N)=S)C1N2C (stereo not shown) [Analog B]
inhibition of import of AAC by analogs [1]: Analog D was the only compound to inhibit import of AAC

N#CC(C#N)=NNc1cccc(Cl)c1 [CCCP, carbonyl cyanide m-chlorophenylhydrazone, reference compound]
mitochondrial network / morphology (HeLa cells [2]): caused the mitochondrial network to collapse around the nucleus | rate of respiration [3]: respiration increased drastically | rhodamine 123 fluorescence (membrane potential) [4]: sharp increase in fluorescence | oxygen consumption rate (NADH respiration) (WT mitochondria): respiration increased drastically

O=C(O)CC(=O)O [malonate]
succinate dehydrogenase activity (oxygen consumption rate with succinate) (succinate dehydrogenase): disrupted

CN[C@@H]1C[C@H]2O[C@@](C)([C@@H]1OC)n1c3ccccc3c3c4c(c5c6ccccc6n2c5c31)C(=O)NC4 [staurosporine]
cyt c release (HeLa cells [5]): showed cyt c release

ALR morpholino: ATG morpholino targeted to zebrafish ALR protein (GAGGGTTGCCAGATCTCTGTTAAAT) (all phosphorodiamidate morpholino (PMO)) [reference compound]
phenotypes of morpholino-injected embryos (zebrafish embryos; 4 ng injected in 1-cell embryos): identical to that of MitoBlock-6 exposure | decreased heart rate (zebrafish embryos; embryos treated with MitoBloCK-6 or ALR morpholino): 25%

Reference: US10758513B2, “Modulators of mitochondrial protein import” (THE REGENTS OF THE UNIVERSITY OF CALIFORNIA, priority 2011, dated 2020)
